IC50 data for 32 compounds are collected here from patent publication US12060333B2 (Hoffmann-La Roche Inc., priority 2021, dated 2024).

The target of one experiment is SARS-CoV-2 3CLpro (Severe acute respiratory syndrome coronavirus 2, UniProt P0DTD1). In words: biochemical. The following applies: IC50 (μM), SARS-CoV-2 3CLPro assay.
For the compound `CC(C)C[C@H](NC(=O)c1cc2c(Cl)cccc2[nH]1)C(=O)NN(CCC(N)=O)C(=O)[C@H](F)Cl` (single isomer, unassigned) [Example 53-B], it took 0.025 µM to reach half-maximal inhibition (IC50).
Compound `COc1cccc2[nH]c(C(=O)NC(CC(C)C)C(=O)NN(CCC(N)=O)C(=O)[C@@H](F)Cl)cc12` (mixture of isomers) [Example 54-A, 4-Methoxy-N-[rac-(1S)-1-[[(3-amino-3-oxo-propyl)-[(2S)-2-chloro-2-fluoro-acetyl]amino]carbamoyl]-3-methyl-butyl]-1H-indole-2-carboxamide] showed an IC50 of 0.004 µM.
As for `CC(C)C[C@H](NC(=O)c1cc2ccccc2[nH]1)C(=O)NN(CC1CCNC1=O)C(=O)CCl` (mixture of isomers) [Example 51, N-[(1S)-1-[[(2-Chloroacetyl)-[(2-oxo-pyrrolidin-3-yl)methyl]amino]carbamoyl]-3-methyl-butyl]-1H-indole-2-carboxamide], the IC50 was found to be 0.004 µM.
Regarding `NC(=O)CCN(NC(=O)[C@H](CC1CCCCC1)NC(=O)OCc1ccccc1)C(=O)[C@H](F)Cl` (single isomer, unassigned) [Example 16-B], the half-inhibitory concentration (IC50) is 0.002 µM.
`COc1cc2cc(C(=O)N[C@@H](CC(C)C)C(=O)NN(CCC(N)=O)C(=O)C(F)Cl)[nH]c2cn1` (mixture of isomers) [Example 89, 5-methoxy-N-[rac-(1S)-1-[[(3-amino-3-axo-propyl)-(2-chloro-2-fluoro-acetyl)amino]carbamoyl]-3-methyl-butyl]-1H-pyrrolo[2,3-c]pyridine-2-carboxamide] returned an IC50 of 0.019 µM.
In turn, `Cc1cc(C(=O)NC(CC(C)C)C(=O)NN(CCC(N)=O)C(=O)C(F)Cl)no1` (racemic) [Example 97, 5-Methyl-N-[rac-(1S)-1-[[(3-amino-3-oxo-propyl)-(2-chloro-2-fluoro-acetyl)amino]carbamoyl]-3-methyl-butyl]isoxazole-3-carboxamide] showed an IC50 of 0.91 µM.
With `CC(C)C[C@H](NC(=O)OCc1ccccc1)C(=O)NN(CCC(N)=O)C(=O)[C@@H](F)Cl` (single isomer, unassigned) [Example 17-A], 1.63 µM corresponded to half-maximal inhibition (IC50).
The compound `CC(C)C[C@H](NC(=O)c1cc2cc(F)ccc2[nH]1)C(=O)NN(CCC(N)=O)C(=O)[C@@H](F)Cl` (racemic) [Example 57-A, 5-fluoro-N-[rac-(1S)-1-[[(3-amino-3-oxo-propyl)-[rac-(2S)-2-chloro-2-fluoro-acetyl]amino]carbamoyl]-3-methyl-butyl]-1H-indole-2-carboxamide] had an IC50 of 0.067 µM.
On to `CC(C)C[C@H](NC(=O)c1cc2ccccc2[nH]1)C(=O)NN(CCC(N)=O)C(=O)[C@H](F)Cl` (single isomer, unassigned) [Example 41-B], for which the IC50 came to 0.034 µM.
Same read-out and setting: the figure for `NC(=O)CCN(NC(=O)[C@H](CC1CC1)NC(=O)c1cc2ccccc2[nH]1)C(=O)C(F)Cl` (mixture of isomers) [Example 62, N-[rac-(1S)-2-[2-(3-amino-3-oxo-propyl)-2-(2-chloro-2-fluoro-acetyl)hydrazino]-1-(cyclopropylmethyl)-2-axo-ethyl]-1H-indole-2-carboxamide] is 0.017 µM; for `CC(C)C[C@H](NC(=O)c1cc2ccccc2[nH]1)C(=O)NN(C[C@@H]1CCNC1=O)C(=O)CF` (single isomer, unassigned) [Example 38-A] it is 0.074 µM; for `CC(C)(C)C[C@H](NC(=O)c1cnccn1)C(=O)NN(CCC(N)=O)C(=O)C(F)Cl` (stereo partly drawn) [Example 78, N-[rac-(1S)-1-[[(3-amino-3-oxo-propyl)-(2-chloro-2-fluoro-acetyl)amino]carbamoyl]-3,3-dimethyl-butyl]pyrazine-2-carboxamide] it is 0.25 µM.
On the same count and under the same terms, to `CC(C)C[C@H](NC(=O)c1ncc[nH]1)C(=O)NN(CCC(N)=O)C(=O)C(F)Cl` (mixture of isomers) [Example 96, N-[rac-(1S)-1-[[(3-amino-3-oxo-propyl)-(2-chloro-2-fluoro-acetyl)amino]carbamoyl]-3-methyl-butyl]-1H-imidazole-2-carboxamide] belongs 0.66 µM; to `Cc1cc(C(=O)N[C@@H](CC(C)C)C(=O)NN(CCC(N)=O)C(=O)CCl)no1` [Example 29], 0.034 µM.
`CC(C)C[C@H](NC(=O)c1nc2ccccc2[nH]1)C(=O)NN(CCC(N)=O)C(=O)[C@@H](F)Cl` (single isomer, unassigned) [Example 63-A] had an IC50 of 0.043 µM.
In turn, `COc1cccc(NCC(=O)N[C@@H](CC(C)C)C(=O)NN(CCC(N)=O)C(=O)[C@H](F)Cl)c1` (single isomer, unassigned) [Example 83-A] had an IC50 of 0.9 µM.
On the same count and under the same terms, to `NC(=O)CCN(NC(=O)[C@H](CC1CCCCC1)NC(=O)c1cn2ccccc2n1)C(=O)C(F)Cl` (mixture of isomers) [Example 82, N-[rac-(1S)-2-[2-(3-amino-3-oxo-propyl)-2-(2-chloro-2-fluoro-acetyl)hydrazino]-1-(cyclohexylmethyl)-2-axo-ethyl]imidazo[1,2-a]pyridine-2-carboxamide] belongs 0.043 µM.

The same experiment, now with this note: read-out: IC50 (μM), SARS-CoV-2 3CLPro assay.
For the compound `NC(=O)CCN(NC(=O)[C@H](CC1CCCC1)NC(=O)OCc1ccccc1)C(=O)CCl` [Example 10, Benzyl N-[(1S)-2-[2-(3-amino-3-oxo-propyl)-2-(2-chloroacetyl)hydrazino]-1-(cyclopentylmethyl)-2-axo-ethyl]carbamate], the IC50 is 0.006 µM.
On the same count and under the same terms, the figure for `CN(C(=O)c1cc2ccccc2[nH]1)[C@@H](CC1CCCCC1)C(=O)NN(CCC(N)=O)C(=O)CCl` [Example 39, N-[(1S)-2-[2-(3-Amino-3-axo-propyl)-2-(2-chloroacetyl)hydrazino]-1-(cyclohexylmethyl)-2-axo-ethyl]-N-methyl-1H-indole-2-carboxamide] is 0.002 µM.
On to `NC(=O)CCN(NC(=O)[C@H](CC1CCCCC1)NC(=O)c1cc2ccccc2[nH]1)C(=O)CF` [Example 36, N-[(1S)-2-[2-(3-Amino-3-axo-propyl)-2-(2-fluoroacetyl)hydrazino]-1-(cyclohexylmethyl)-2-axo-ethyl]-1H-indole-2-carboxamide], for which the IC50 is 0.14 µM.
Still for that read-out and setting: to `NC(=O)CCN(NC(=O)[C@H](CC1CCCCC1)NC(=O)c1cc2ccccc2[nH]1)C(=O)[C@H](F)Cl` [Example 59-B, N-[(1S)-2-[2-(3-amino-3-oxo-propyl)-2-[(2R)-2-chloro-2-fluoro-acetyl]hydrazino]-1-(cyclohexylmethyl)-2-axo-ethyl]-1H-indole-2-carboxamide] belongs 0.005 µM; to “N-[(1S)-1-[[(3-amino-3-oxo-propyl)-[(2R)-2-chloro-2-fluoro-acetyl]amino]carbamoyl]-3-methyl-butyl]-1H-pyrrolo[2,3-c]pyridine-2-carboxamide and N-[(1S)-1-[[(3-amino-3-oxo-propyl)-[(2S)-2-chloro-2-fluoro-acetyl]amino]carbamoyl]-3-methyl-butyl]-1H-pyrrolo[2,3-c]pyridine-2-carboxamide [Example 88]”, 0.013 µM; to `COc1cccc2[nH]c(C(=O)N[C@@H](CC(C)C)C(=O)NN(CCC(N)=O)C(=O)C(F)Cl)cc12` (stereo partly drawn) [Example 49, 4-Methoxy-N-[(1S)-1-[[(3-amino-3-oxo-propyl)-(2-chloro-2-fluoro-acetyl)amino]carbamoyl]-3-methyl-butyl]-1H-indole-2-carboxamide], 0.015 µM.
Regarding `COc1cccc2[nH]c(C(=O)N[C@@H](CC3CCCCC3)C(=O)NN(CCC(N)=O)C(=O)[C@H](F)Cl)cc12` [Example 56-B, N-[(1S)-2-[2-(3-amino-3-oxo-propyl)-2-[(2S)-2-chloro-2-fluoro-acetyl]hydrazino]-1-(cyclohexylmethyl)-2-axo-ethyl]-4-methoxy-1H-indole-2-carboxamide], the IC50 was 0.003 µM.
Regarding `CC(C)C[C@H](NC(=O)c1nc2ccccc2[nH]1)C(=O)NN(CCC(N)=O)C(=O)CCl` [Example 42, N-[(1S)-1-[[(3-Amino-3-axo-propyl)-(2-chloroacetyl)amino]carbamoyl]-3-methyl-butyl]-1H-benzimidazole-2-carboxamide], the IC50 amounted to 0.005 µM.
With `CNC(=O)CCN(NC(=O)[C@H](CC(C)C)N(C)C(=O)c1cc2ccccc2[nH]1)C(=O)CCl` [Example 50, N-[(1S)-1-[[(2-Chloroacetyl)-[3-(methylamino)-3-oxo-propyl]amino]carbamoyl]-3-methyl-butyl]-N-methyl-1H-indole-2-carboxamide], the IC50 was 0.074 µM.
Same read-out and setting: the figure for `CC(C)C[C@H](NC(=O)OC(C)(C)C)C(=O)NN(CCC(N)=O)C(=O)CCl` [Example 26, tert-Butyl N-[(1S)-1-[[(3-amino-3-oxo-propyl)-(2-chloroacetyl)amino]carbamoyl]-3-methyl-butyl]carbamate] is 0.67 µM; for `NC(=O)CCN(NC(=O)[C@H](CC1CC1)NC(=O)OCc1ccccc1)C(=O)CCl` [Example 11, Benzyl N-[(1S)-2-[2-(3-amino-3-oxo-propyl)-2-(2-chloroacetyl)hydrazino]-1-(cyclopropylmethyl)-2-axo-ethyl]carbamate] it is 0.023 µM; for `CC(C)C[C@H](NC(=O)OCc1ccccc1)C(=O)NN(CCC(N)=O)C(=O)CBr` [Example 7, Benzyl N-[(1S)-1-[[(3-amino-3-oxo-propyl)-(2-bromoacetyl)amino]carbamoyl]-3-methyl-butyl]carbamate] it is 0.54 µM.
Turning to `CC(C)C[C@H](NC(=O)OCc1ccccc1)C(=O)NN(CCC(N)=O)C(=O)C(Cl)c1ccccc1` (stereo partly drawn) [Example 3, Benzyl N-[(1S)-1-[[(3-amino-3-oxo-propyl)-(2-chloro-2-phenyl-acetyl)amino]carbamoyl]-3-methyl-butyl]carbamat], the IC50 worked out at 0.89 µM.
As for `NC(=O)CCN(NC(=O)[C@H](CC1CCCCC1)NC(=O)c1cc2ccccc2[nH]1)C(=O)CCl` [Example 35, N-[(1S)-2-[2-(3-Amino-3-axo-propyl)-2-(2-chloroacetyl)hydrazino]-1-(cyclohexylmethyl)-2-axo-ethyl]-1H-indole-2-carboxamide], the IC50 worked out at 0.002 µM.
Same read-out and setting: to `CC(C)C[C@H](NC(=O)c1cc2cccnc2[nH]1)C(=O)NN(CCC(N)=O)C(=O)CCl` [Example 44, N-[(1S)-1-[[(3-Amino-3-oxo-propyl)-(2-chloroacetyl)amino]carbamoyl]-3-methyl-butyl]-1H-pyrrolo[2,3-b]pyridine-2-carboxamide] belongs 0.017 µM.

As a reminder, the IC50 is the concentration needed to halve the response being measured.
